Entries after “also recorded” stand apart in the source; their conditions may differ.
What was measured:
[1] = system: Male Sprague-Dawley rats; experiment: Enteropathy model: intestinal erosions and ulcers after oral dosing; conditions: diclofenac vs equimolar compound 54, vehicle PEG, FIG. 1
Description: Enteropathy: Male Sprague-Dawley rats (150-174 g) were obtained from Harlan. Animals were allowed to acclimatize to the facility for a minimum of 3 days and provided with food and water ad libitium. […] Drugs were administered orally either as a single dose (late morning) or twice daily between 8:00-10:00 and 4:00-5:00 beginning with a morning dose for a total of three days. Groups contained 6-8 animals per treatment. On the fourth day each rat was injected intravenously with 1 ml of a 10 mg/ml solution of Evan's Blue to stain the damaged blood vessels in intestinal erosions and ulcers. Animals were sacrificed 10 to 20 minutes after administration of Evan's Blue. The small intestine was then removed from each rat and placed in a large weigh boat in cold PBS, stored briefly in a refrigerator until boats were re-coded to blind the observer. Each intestinal segment was then opened longitudinally and, using a fiber optic light, scored for erosions and ulceration according to the following criteria:
After Evan's Blue injection, intestinal lesions are seen as shallow lesions that are moderately stained around the edge, but with little to no staining in the middle. The depth of an erosion is sometimes only detectable when the edge of the tissue is lifted to reflect light at a different angle. Erosions are usually small and round or oval, but are sometimes as much as 1-2 mm wide, and as long as 1-2 cm, running along the area of mesenteric attachment. When erosions are elongated, the length is measured in mm and divided by 2; otherwise, the erosions are merely counted individually. Note that some areas of intestinal tissue stain blue, but are not erosions. These tend to be near the mesenteric membrane attachment sites and may represent areas of increased permeability that have not progressed to the extent that cell loss has occurred.
Ulcers: An ulcer is a deep lesion penetrating the muscularis mucosa. It is usually thickened and inflamed. After Evan's Blue injection, ulcers present several different types of appearance. […] All ulcers are quantified by measuring their long dimensions in mm.

[2] = system: Male Lewis rats; experiment: Adjuvant-induced arthritis: paw volume; assay type: in vivo, rat; conditions: oral daily on days 8-15, day 15, equimolar doses, FIG. 3
[3] = system: Male Sprague-Dawley rats; experiment: Gastropathy model: total gastric lesions after a single oral dose; assay type: in vivo, rat
Description: Rats were fasted for 18 hours prior to the study. […] Drugs were administered orally as a single dose in the morning and water removed. Two and one-half hours after dosing, rats were injected with 1 ml of 10 mg/ml Evans Blue solution and sacrificed 30 minutes later. Stomachs were removed, placed in weigh boats containing cold PBS, and re-coded with letters to blind the observer. Stomachs were then opened along the greater curvature, any contents removed and then placed flat with the lumen facing up to score blue-stained lesions for gastric toxicity according to the following criteria: First, the number of small rounded lesions were counted followed by measurement of total length of linear lesions of greater than or equal to 2 mm. The two numbers obtained (round lesion number and linear length) were added together to give a total gastropathy score expressed as Total Gastric Lesions.

| less gastric lesion (total length) than an equimolar dose of diclofenac ([3]; rats, oral single dose, relative to equimolar diclofenac, FIG. 2) | SMILES | total length of intestinal ulcers (ulcerogenic effect / ulcer formation) [1] | inhibition of paw volume increase in the uninjected feet (anti-inflammatory activity) [2] | gastric lesion formation compared with Diclofenac ([3]; rat model of gastropathy, equivalent doses) |
| --- | --- | --- | --- | --- |
| 73% | Cc1csc(=S)n1OC(=O)Cc1ccccc1Nc1c(Cl)cccc1Cl [Compound 54] | significantly less; also recorded: no ulcerogenic effect | equivalent efficacy to equimolar doses of Diclofenac | significantly less gastric lesion formation |
|  | O=C(O)Cc1ccccc1Nc1c(Cl)cccc1Cl [Diclofenac, diclofenac, reference compound] | substantial ulceration |  |  |
